# In ChEMBL document CHEMBL3045548, “Synthesis of some novel 1,2,4-triazole and 1,3,4-oxadiazole derivatives of biological interest” (2013):
# Legend:
# Assay type in all cases: functional
# Bacillus subtilis = test: Antimicrobial activity against Bacillus subtilis NICM 2063 assessed as growth inhibition by two fold serial dilution method
# Escherichia coli = test: Antimicrobial activity against Escherichia coli NICM 2138 assessed as growth inhibition by two-fold serial dilution method
# Saccharomyces cerevisiae = test: Antimicrobial activity against Saccharomyces cerevisiae NICM 3312 assessed as growth inhibition by two fold serial dilution method
# Rhizopus arrhizus = test: Antimicrobial activity against Rhizopus oryzae NICM 997 assessed as growth inhibition by two-fold serial dilution method
# Staphylococcus aureus = test: Antimicrobial activity against Staphylococcus aureus NICM 2079 assessed as growth inhibition by two fold serial dilution method
# [1] = system: Staphylococcus epidermidis; test: Antimicrobial activity against Staphylococcus epidermidis NICM 2493 assessed as growth inhibition by two fold serial dilution method
# Pseudomonas aeruginosa = test: Antimicrobial activity against Pseudomonas aeruginosa NICM 2036 assessed as growth inhibition by two-fold serial dilution method
# Aspergillus flavus = test: Antimicrobial activity against Aspergillus flavus NICM 524 assessed as growth inhibition by two fold serial dilution method
# Aspergillus niger = test: Antimicrobial activity against Aspergillus niger NICM 572 assessed as growth inhibition by two fold serial dilution method
# Candida albicans = test: Antimicrobial activity against Candida albicans NICM 3100 assessed as growth inhibition by two-fold serial dilution method
SMILES,MIC (Bacillus subtilis),MIC (Escherichia coli),MIC (Saccharomyces cerevisiae),MIC (Rhizopus arrhizus),MIC (Staphylococcus aureus),MIC [1],MIC (Pseudomonas aeruginosa),MIC (Aspergillus flavus),MIC (Aspergillus niger),MIC (Candida albicans)
Cc1nn(-c2ccc(-c3nnc(S)n3N)cc2)c(=O)n1N,18.8 µg/mL,37.5 µg/mL,150 µg/mL,18.8 µg/mL,9.37 µg/mL,75 µg/mL,18.8 µg/mL,75 µg/mL,37.5 µg/mL,150 µg/mL
Cc1nn(-c2ccc(-c3nnc(S)o3)cc2)c(=O)n1/N=C/c1cscn1,37.5 µg/mL,37.5 µg/mL,150 µg/mL,37.5 µg/mL,75 µg/mL,18.8 µg/mL,150 µg/mL,150 µg/mL,150 µg/mL,150 µg/mL
Cc1nn(-c2ccc(-c3nnc(S)o3)cc2)c(=O)n1/N=C/c1ccco1,150 µg/mL,150 µg/mL,150 µg/mL,150 µg/mL,37.5 µg/mL,75 µg/mL,37.5 µg/mL,150 µg/mL,150 µg/mL,150 µg/mL
Cc1nn(-c2ccc(-c3nnc(S)o3)cc2)c(=O)n1/N=C/c1ccccc1Br,75 µg/mL,150 µg/mL,150 µg/mL,37.5 µg/mL,75 µg/mL,75 µg/mL,150 µg/mL,75 µg/mL,150 µg/mL,150 µg/mL
Cc1nn(-c2ccc(-c3nnc(S)o3)cc2)c(=O)n1/N=C/c1ccc(F)cc1,75 µg/mL,37.5 µg/mL,150 µg/mL,75 µg/mL,150 µg/mL,150 µg/mL,75 µg/mL,75 µg/mL,75 µg/mL,150 µg/mL
Cc1nn(-c2ccc(-c3nnc(S)o3)cc2)c(=O)n1/N=C/c1cc(F)ccc1F,37.5 µg/mL,150 µg/mL,150 µg/mL,18.8 µg/mL,75 µg/mL,18.8 µg/mL,75 µg/mL,9.37 µg/mL,37.5 µg/mL,18.8 µg/mL
Cc1nn(-c2ccc(-c3nnc(S)o3)cc2)c(=O)n1/N=C/c1cccc(F)c1,18.8 µg/mL,9.37 µg/mL,75 µg/mL,150 µg/mL,9.37 µg/mL,37.5 µg/mL,75 µg/mL,150 µg/mL,150 µg/mL,150 µg/mL
Cc1nn(-c2ccc(-c3nnc(S)o3)cc2)c(=O)n1/N=C/c1ccccc1F,75 µg/mL,75 µg/mL,75 µg/mL,9.37 µg/mL,37.5 µg/mL,150 µg/mL,75 µg/mL,37.5 µg/mL,75 µg/mL,150 µg/mL
CCOC(=O)CSc1nnc(-c2ccc(-n3nc(C)n(N)c3=O)cc2)o1,37.5 µg/mL,37.5 µg/mL,150 µg/mL,150 µg/mL,18.8 µg/mL,75 µg/mL,75 µg/mL,150 µg/mL,150 µg/mL,150 µg/mL
Cc1nn(-c2ccc(-c3nnc(S)o3)cc2)c(=O)n1N,37.5 µg/mL,75 µg/mL,150 µg/mL,75 µg/mL,75 µg/mL,150 µg/mL,37.5 µg/mL,150 µg/mL,150 µg/mL,37.5 µg/mL
CSc1nnc(-c2ccc(-n3nc(C)n(N)c3=O)cc2)o1,150 µg/mL,75 µg/mL,150 µg/mL,37.5 µg/mL,37.5 µg/mL,75 µg/mL,75 µg/mL,150 µg/mL,150 µg/mL,150 µg/mL
C[C@@H]1[C@H](O)[C@@H](C)/C=C/C=C/C=C/C=C/C=C/C=C/C=C/[C@H](O[C@@H]2O[C@H](C)[C@@H](O)[C@H](N)[C@@H]2O)C[C@@H]2O[C@](O)(C[C@@H](O)C[C@@H](O)[C@H](O)CC[C@@H](O)C[C@@H](O)CC(=O)O[C@H]1C)C[C@H](O)[C@H]2C(=O)O [AMPHOTERICIN B],–,–,6.25 µg/mL,1.56 µg/mL,–,–,–,6.25 µg/mL,1.56 µg/mL,6.25 µg/mL
CC1(C)S[C@@H]2[C@H](NC(=O)Cc3ccccc3)C(=O)N2[C@H]1C(=O)O [PENICILLIN G],1.53 µg/mL,6.25 µg/mL,–,–,6.25 µg/mL,3.12 µg/mL,9.37 µg/mL,–,–,–
CN[C@@H]1[C@H](O[C@H]2[C@H](O[C@H]3[C@H](O)[C@@H](O)[C@H](N=C(N)N)[C@@H](O)[C@@H]3N=C(N)N)O[C@@H](C)[C@]2(O)C=O)O[C@@H](CO)[C@H](O)[C@H]1O [STREPTOMYCIN],6.25 µg/mL,3.12 µg/mL,–,–,1.56 µg/mL,1.56 µg/mL,3.12 µg/mL,–,–,–
